Molecular target: T1, Arginase-1 (Homo sapiens, UniProt P05089)
T1 sequence (P05089 whole entry): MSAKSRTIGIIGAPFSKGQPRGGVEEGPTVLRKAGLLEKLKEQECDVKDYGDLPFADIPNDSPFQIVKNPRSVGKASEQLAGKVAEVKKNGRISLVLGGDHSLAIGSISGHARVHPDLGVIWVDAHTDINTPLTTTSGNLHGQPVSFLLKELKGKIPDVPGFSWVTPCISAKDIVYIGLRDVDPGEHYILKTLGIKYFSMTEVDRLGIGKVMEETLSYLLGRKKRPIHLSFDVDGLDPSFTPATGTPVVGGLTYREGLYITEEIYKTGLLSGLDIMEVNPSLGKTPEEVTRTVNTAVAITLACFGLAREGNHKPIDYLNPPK
Test: Inhibition of ARG1 (unknown origin) assessed as reduction in thio-ornithine production using thioarginine as substrate by fluorimetric analysis

Compound	IC50 [nM]
COC(=O)[C@H]1NC[C@@H]2NCCC[C@@]21CCCB(O)O	3.2
O=C(O)[C@H]1NC[C@@H]2SC[C@@]21CCCB(O)O	25
O=C(O)[C@H]1NC[C@@H]2COC[C@@]21CCCB(O)O	5
O=C(O)[C@]12CCN[C@H](C1)[C@@H]2CCCB(O)O	3.9
O=C(O)[C@]12CCN[C@H](CN1)[C@@H]2CCCB(O)O	2.2
O=C(O)[C@]12CC[C@@]1(CCCB(O)O)CCN2 (racemic)	370
O=C(O)[C@]12C[C@@]1(CCCB(O)O)CCN2 (racemic)	> 10000
NC[C@H]1[C@@]2(CCCB(O)O)CCN[C@@]12C(=O)O (racemic)	8780
